{
  "source": "patent US7304174B2",
  "about": "“CaSR antagonist” (Japan Tobacco Inc., priority 2003, dated 2007)",
  "key": {"PTH release": {"test_system": "PTH release", "conditions": "cited from earlier work"}, "[1]": {"test_system": "osteoblast and osteoclast", "conditions": "in vitro; cited from earlier work"}, "[2]": {"conditions": "OVX rat, 100 μmol/kg; cited from earlier work"}, "PTH secretion": {"test_system": "PTH secretion", "experiment": "Reproductive test of NPS-2143 of the reference (PTH secretion)", "type": "in vivo"}},
  "data": [
    {"smiles": "CC(C)(Cc1ccc2ccccc2c1)NC[C@@H](O)COc1cccc(Cl)c1C#N", "note": "[NPS-2143]", "values": [
      {"measurement": "Blood PTH concentration 4 hours later", "setting": "PTH release; OVX rat, 100 μmol/kg", "result": "about 140 pg/ml"},
      {"measurement": "Blood PTH concentration in 30 minutes", "setting": "PTH release; OVX rat, rat PTH (1-34) 5 μg/kg, NPS-2143 100 μmol/kg", "result": "about 115 pg/ml"},
      {"measurement": "Effect on bone (bone density)", "setting": "PTH release; OVX rats, oral", "result": "free of bone decrease or bone increase"},
      {"measurement": "Release of PTH", "setting": "PTH release; OVX rats, oral", "result": "significantly promotes release of PTH"},
      {"measurement": "Direct effect on osteoblast and osteoclast", "setting": "[1]", "result": "did not show any direct effect"},
      {"measurement": "Blood concentration of NPS-2143 8 hours after the administration", "setting": "[2]", "result": "not less than 100 ng/ml"},
      {"measurement": "Blood concentration of NPS-2143 24 hours later", "setting": "[2]", "result": "≤ 10", "unit": "ng/mL"},
      {"measurement": "PTH secretion promoting action", "setting": "PTH secretion", "result": "sustained secretion promoting action"}
    ]}
  ]
}
